Counter-ions that a name gives are not always drawn. Like-named read-outs stand apart in the source and are kept apart here.

Format in all cases: cell-based
The subject of one data set is add-G6 riboswitch. Put plainly: cells. The conditions noted are these: for fold induction at 100 µM: Homo sapiens. An excerpt:
(§1) A truncated human beta-globin intron sequence was synthesized and inserted in the coding sequence of a firefly luciferase gene. A mutant human DHFR exon 2 was synthesized and inserted in the middle of this truncated beta-globin intron sequence using Golden gate cloning strategy. Aptamers including xpt-G/A^1, ydhl-G/A^2, yxj^3, add^4, gdg6-G/A^5 (citations for the aptamers are incorporated herein by reference) were synthesized as oligonucleotides (“oligos”) with 4 nucleotide overhang at the 5′ end that are complementary to two different BsaI sites individually (IDT), annealed and ligated to BsaI-digested mDHFR-Luci-acceptor vector.
3.5×10^4 HEK 293 cells were plated in a 96-well flat bottom plate the day before transfection. Plasmid DNA (500 ng) was added to a tube or a 96-well U-bottom plate. […] Then, 50 μL of this diluted transfection reagent was added to the DNA, mixed, and incubated at RT for 20 min. Finally, 7 μL of this solution was added to a well of cells in the 96-well plate.
24 hours after media change, plates were removed from the incubator, and equilibrated to RT for several minutes on a lab bench, then aspirated. Glo-lysis buffer (Promega, 100 μL, RT) was added, and the plates maintained at RT for at least 5 minutes. Then, the well contents were mixed by 50 μL trituration, and 20 μL of each sample was mixed with 20 μL of bright-glo reagent (Promega) that had been diluted to 10% in glo-lysis buffer. 96 wells were spaced on an opaque white 384-well plate. Following a 5 min incubation at RT, luminescence was measured using a Tecan machine with 500 mSec read time. […]

For another data set, the system named is gdg6-A8 riboswitch. As to the kind of experiment: Luciferase reporter assay, gdg6-A8 riboswitch, transfected HEK 293 cells. The note with it: for fold induction at 100 µM: Homo sapiens, HEK293, gdg6-A8 riboswitch, Prestwick library compounds at 100 μM, HEK 293. An excerpt: Riboswitches were constructed as described in PCT/US2016/016234 (in particular Examples 3 to 6), incorporated herein by reference. A truncated human beta-globin intron sequence was synthesized and inserted in the coding sequence of a firefly luciferase gene. A mutant human DHFR exon 2 was synthesized and inserted in the middle of this truncated beta-globin intron sequence using Golden gate cloning strategy. Aptamers including xpt-G/A^1, ydhl-G/A^2, yxj^3, add^4, gdg6-G/A^5 (citations for the aptamers are incorporated herein by reference) were synthesized as oligonucleotides (“oligos”) with 4 nucleotide overhang at the 5′ end that are complementary to two different BsaI sites individually (IDT), annealed and ligated to BsaI-digested mDHFR-Luci-acceptor vector.
(§2) 3.5×10^4 HEK 293 cells were plated in a 96-well flat bottom plate the day before transfection. Plasmid DNA (500 ng) was added to a tube or a 96-well U-bottom plate. Separately, TransIT-293 reagent (Mirus; 1.4 μL) was added to 50 μL Opti-mem I media (Life Technologies), and allowed to sit for 5 minutes at room temperature (RT). Then, 50 μL of this diluted transfection reagent was added to the DNA, mixed, and incubated at RT for 20 min. Finally, 7 μL of this solution was added to a well of cells in the 96-well plate.
(§3) 24 hours after media change, plates were removed from the incubator, and equilibrated to RT for several minutes on a lab bench, then aspirated. Glo-lysis buffer (Promega, 100 μL, RT) was added, and the plates maintained at RT for at least 5 minutes. Then, the well contents were mixed by 50 μL trituration, and 20 μL of each sample was mixed with 20 μL of bright-glo reagent (Promega) that had been diluted to 10% in glo-lysis buffer. 96 wells were spaced on an opaque white 384-well plate. Following a 5 min incubation at RT, luminescence was measured using a Tecan machine with 500 mSec read time. The luciferase activity was expressed as mean relative light unit (RLU)±S.D., and fold induction was calculated as the luciferase activity obtained with guanine treatment divided by luciferase activity obtained without guanine treatment.
Background: Reporter assays use an easily measured gene product as a stand-in for the process of interest.

The subject of the next data set is xpt-G17 riboswitch. Put plainly: Luciferase reporter assay, xpt-G17 riboswitch, transfected HEK 293 cells. The note with it: for fold induction at 100 µM: HEK293, xpt-G17 riboswitch, Prestwick library compounds at 100 μM, HEK 293; for fold induction at 100 µM / response of guanine riboswitch xpt-G17 to compound (FIG. 1e): preliminary screen; for response of guanine riboswitch xpt-G17 to compound (FIG. 1e): Prestwick library at 100 μM.
Source text: as §1, §2, §3

Setting [1] is: HEK293, add-G6 riboswitch, Prestwick library compounds at 100 μM, HEK 293, read-out: Fold Induction of luciferase activity.
Where [2] appears, read: add-G6 riboswitch, Prestwick library compounds at 100 μM, HEK 293.

With `NC(=NCc1ccccc1)NC(=O)c1nc(Cl)c(N)nc1N` [Benzamil hydrochloride], in the data set with add-G6 riboswitch (setting [1]), the fold induction at 100 µM was determined as 3. The same measure, in the same setting: the result for `CC(C)COCC(CN(Cc1ccccc1)c1ccccc1)N1CCCC1` (stereo not shown) [Bepridil hydrochloride] reads 4.4. As for `CC[C@@]1(O)C(=O)OCc2c1cc1n(c2=O)Cc2cc3ccccc3nc2-1` [Camptothecine (S, +)], the “Fold Induction of luciferase activity” value in the data set on add-G6 riboswitch (setting [2]) is given as 5.7 fold. Take `CN/C(=N/CCSCc1nc[nH]c1C)NC#N` [Cimetidine]: the fold induction at 100 µM in the data set with gdg6-A8 riboswitch was 3. `C#C[C@]1(O)CC[C@H]2[C@@H]3CCC4=Cc5oncc5C[C@]4(C)[C@H]3CC[C@@]21C` [Danazol]: the fold induction at 100 µM in the data set with add-G6 riboswitch (setting [1]) worked out at 3.7. In the case of `C/C=C(/C(=C/C)c1ccc(O)cc1)c1ccc(O)cc1` [Dienestrol], in the data set with gdg6-A8 riboswitch, the fold induction at 100 µM is 4.3. Still for that read-out and setting: for `O=C(Nc1ccccc1)OCC(CN1CCCCC1)OC(=O)Nc1ccccc1` (stereo not shown) [Diperodon hydrochloride] the value was 3.

For `Fc1ccc(C(c2ccc(F)cc2)N2CCN(C/C=C/c3ccccc3)CC2)cc1` [Flunarizine dihydrochloride], the fold induction at 100 µM in the data set with add-G6 riboswitch (setting [1]) is 4.7. As for `Clc1cc(Cl)c(OCC#CI)cc1Cl` [Haloprogin], the fold induction at 100 µM in the data set on xpt-G17 riboswitch (Homo sapiens) is 5.1; in the data set on add-G6 riboswitch (setting [1]) it was 5.9. Consider `C#C[C@]1(O)CC[C@H]2[C@@H]3CCC4=CCCC[C@@H]4[C@H]3CC[C@@]21C` [Lynestrenol], for which the fold induction at 100 µM with add-G6 riboswitch (setting [1]) was found to be 3.8. In the case of `O=C(COc1ccccc1)Nc1nc2nc[nH]c2c(=O)[nH]1` [N2-Phenoxyacetyl guanine], in the data set on xpt-G17 riboswitch (Homo sapiens, HEK293, 24 h, xpt-G17 construct, 500 μM concentration, FIG. 1c, 1d, read-out: fold induction of luciferase activity by guanine analogs (N2 compounds)), the fold induction at 500 µM was found to be 1300.

Take `O=C(Nc1ccc([N+](=O)[O-])cc1Cl)c1cc(Cl)ccc1O` [Niclosamide]: the fold induction at 100 µM in the data set with add-G6 riboswitch (setting [1]) came to 3. Still for that read-out and setting: the result for `CC(=O)O[C@]1(C(C)=O)CC[C@H]2[C@@H]3C=C(C)C4=CC(=O)CC[C@@H]4[C@H]3CC[C@@]21C` [Nomegestrol acetate] reads 3.5.

Turning to `CC(=O)[C@H]1CC[C@H]2[C@@H]3CCC4=CC(=O)CC[C@]4(C)[C@H]3CC[C@]12C` [Progesterone], the values for the fold induction at 100 µM in the data set with xpt-G17 riboswitch (Homo sapiens) and in the data set with add-G6 riboswitch (setting [1]) were 12 and 6, respectively. For the same compound, in the data set with xpt-G17 riboswitch, the “response of guanine riboswitch xpt-G17 to compound (FIG. 1e)” value (from here on “response of guanine riboswitch xpt-G17”) is recorded as “responded”.

With `CNCCCC1c2ccccc2C=Cc2ccccc21` [Protriptyline hydrochloride], in the data set on add-G6 riboswitch (setting [1]), the fold induction at 100 µM is 5. Turning to `CN1CCc2cccc3c2[C@H]1Cc1ccc(O)c(O)c1-3.CN1CCc2cccc3c2[C@H]1Cc1ccc(O)c(O)c1-3.Cl.Cl.O` [R(−)Apomorphine hydrochloride hemihydrate], the “Fold Induction of luciferase activity” value in the data set with add-G6 riboswitch (setting [2]) is given as 3.4 fold. Take `Clc1ccc(C(Cn2ccnc2)OCc2csc3c(Cl)cccc23)c(Cl)c1` (stereo not shown) [Sertaconazole Nitrate]: in the data set with add-G6 riboswitch (setting [1]), the fold induction at 100 µM was 6.5. Turning to `COc1ccc2[nH]c([S+]([O-])Cc3ncc(C)c(OC)c3C)nc2n1` (stereo not shown) [Tenatoprazole], in the data set with xpt-G17 riboswitch (Homo sapiens), the fold induction at 100 µM stood at 3.2. As for `CCC(=O)O[C@H]1CC[C@H]2[C@@H]3CCC4=CC(=O)CC[C@]4(C)[C@H]3CC[C@]12C` [Testosterone propionate], the fold induction at 100 µM with xpt-G17 riboswitch (Homo sapiens) stood at 29; in the data set with add-G6 riboswitch (HEK293, read-out: Fold Induction of luciferase activity), 8.8. For the same compound, the “response of guanine riboswitch xpt-G17” value in the data set with xpt-G17 riboswitch is listed as “responded”. Take `Nc1nc2nc[nH]c2c(=S)[nH]1` [Thioguanine]: the “response of guanine riboswitch xpt-G17” value in the data set with xpt-G17 riboswitch was “responded”. In the data set with xpt-G17 riboswitch (Homo sapiens), `CN(C)CCOC1=Cc2ccccc2Sc2ccc(Cl)cc21` [Zotepine] registered a fold induction at 100 µM of 4.3. Take Avermectin B1: in the data set on add-G6 riboswitch (setting [2]), the “Fold Induction of luciferase activity” value was determined as 11.8 fold. On the same count and under the same terms, the result for Meclocycline sulfosalicylate reads 3.4 fold. In the case of Methotrimeprazine maleate salt, the “Fold Induction of luciferase activity” value in the data set on gdg6-A8 riboswitch (100 µM) was 5.0 fold. Turning to Tyloxapol, the “Fold Induction of luciferase activity” value in the data set with xpt-G17 riboswitch (100 µM) stood at 16.2 fold. Further, the “response of guanine riboswitch xpt-G17” value with xpt-G17 riboswitch is “responded”.

Source of the values: patent US11371077B2, “High throughput cell-based screening for aptamers” (MeiraGTx UK II Limited, priority 2016, dated 2022).
